Source: article PMC4032197 (Journal of Medicinal Chemistry, 2014)

Assays:
human EP2 receptors [1] = biological target: T1, human EP2 receptors (Homo sapiens, UniProt P43116); settings: for EP2 potency (in words): tested at 1 μM
[2] = mouse
human EP2 receptors [3] = biological target: T1, human EP2 receptors; settings: earlier study; cited from earlier work

T1 sequence (P43116 whole entry): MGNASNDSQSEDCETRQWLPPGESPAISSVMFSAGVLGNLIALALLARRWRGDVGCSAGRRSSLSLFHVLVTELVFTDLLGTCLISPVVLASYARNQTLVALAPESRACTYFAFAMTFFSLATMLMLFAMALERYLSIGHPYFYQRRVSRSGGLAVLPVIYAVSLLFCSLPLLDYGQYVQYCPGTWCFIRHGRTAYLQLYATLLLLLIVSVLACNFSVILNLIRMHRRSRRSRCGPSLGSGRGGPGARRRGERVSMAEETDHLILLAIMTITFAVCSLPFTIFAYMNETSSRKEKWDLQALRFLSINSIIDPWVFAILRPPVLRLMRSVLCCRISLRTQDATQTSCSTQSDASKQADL

Row | SMILES | fold less EP2 potency in comparison to 5a (human EP2 receptors [1]) | EP2 potency (in words) (human EP2 receptors [1]) | also measured
1 | COc1ccc(/C=C/C(=O)NCCn2c(C(F)(F)F)cc3ccccc32)cc1 [5e] |  |  | fold less EP2 potency in comparison to 5d (human EP2 receptors [1]): 16 fold
2 | Cc1cc(/C=C/C(=O)NCCn2c(C(F)(F)F)cc3ccccc32)cc(C)c1F [5f] |  |  | fold less EP2 potency in comparison to 5d (human EP2 receptors [1]): 16 fold
3 | COc1cc(/C=C/C(=O)NCCc2c(C)oc3ccccc23)cc(OC)c1OC [5k] | 138 fold |  | 
4 | COc1cc(/C=C/C(=O)NCc2c(C)[nH]c3ccccc23)cc(OC)c1OC [5s] |  | complete loss of potency | 
5 | COc1ccc(CCNC(=O)CCn2c(C)cc3ccccc32)cc1OC [5u] |  | killed EP2 potency | 
6 | COc1cc(C(N)CC(=O)NCCn2c(C)cc3ccccc32)cc(OC)c1OC (centres unmarked) [5w] | 180 fold |  | 
7 | COC(=O)[C@H](Cc1c(C)[nH]c2ccccc12)NC(=O)/C=C/c1cc(OC)c(OC)c(OC)c1 [5y] |  | inactive | 
8 | Cc1cc2ccccc2n1CCNC(=O)/C=C/c1ccc(OCCO)c(OCCO)c1 [6a, (E)-3-(3,4-Bis(2-hydroxyethoxy)phenyl)-N-(2-(2-methyl-1H-indol-1-yl)ethyl)acrylamide] |  |  | in vivo plasma half-life [2]: more than an hour; brain penetration property ([2]; in vivo): poor
9 | COc1cc(/C=C/C(=O)OCCn2c(C)cc3ccccc32)cc(OC)c1OC [6h] | about 140 fold |  | 
10 | Cc1cc2ccccc2n1CCNC(=O)C1CC1c1ccc(F)cc1 (centres unmarked) [6i] | 100 fold |  | 
11 | COc1cc(/C=C/C(=O)NCCN2CCCCC2C)cc(OC)c1OC (centres unmarked) [6j] |  |  | EP2 activity (in words) (human EP2 receptors [3]): complete loss of activity
12 | COc1ccc(/C=C/C(=O)NCCn2c(C)cc3ccccc32)cc1 [6q] | 7 fold |  | 
13 | COc1cc(/C=C/C(=O)NCCc2n[nH]c3ccccc23)cc(OC)c1OC [6t] |  | completely lost EP2 potency | 
